Data: paper PMC12682947, “Identification of New KCNT1‐Epilepsy Drugs by In Silico, Cell, and Drosophila Modeling” (Annals of Neurology, 2025)
Values joined by “and” are separate entries in the source; they are usually repeats but may differ in a detail not shown here. Equal values may be shown once. “Also recorded” adds a separate entry of the source. Read-outs that look alike come from different tables or passages of the source.

Assays:
[1] = cited from earlier work
[2] = Plasma pharmacokinetics and brain uptake of antrafenine in mice (LC-MS); format: in vivo, male C57BL/6 mice
Protocol: Plasma pharmacokinetics and brain uptake of antrafenine was analyzed in male C57BL/6 mice. Antrafenine was administered intravenously at 1 mg/kg and 3 mg/kg into the tail vein and plasma was collected over a 24‐hour sampling period (n = 3 mice/time point). Following administration, the brain was harvested at 4 times over 24 hours and snap frozen in dry ice and subsequently stored frozen (−80°C) until analysis. The concentration of antrafenine was determined using liquid chromatography–mass spectrometry. The in vivo study was conducted using established procedures in accordance with the Australian Code of Practice for the Care and Use of Animals for Scientific Purposes, and the study protocols were reviewed and approved by the Monash Institute of Pharmaceutical Sciences Animal Ethics Committee. See Supporting Information for detailed methods and results. […]
Plasma pharmacokinetics and brain uptake of antrafenine was analyzed in male C57BL/6 mice by the Monash University Centre for Drug Candidate Optimisation. Antrafenine was administered intravenously at 1 mg/kg and 3 mg/kg into the tail vein and plasma was collected over a 24 h sampling period (n=3 mice/time point). Following administration, brain was harvested at four times over 24 hours and snap frozen in dry ice and subsequently stored frozen (-80°C) until analysis. The concentration of antrafenine was determined using liquid chromatography–mass spectrometry (LC-MS).
4 hrs post IV administration of 3 mg/kg Antrafenine was taken as a representative time to compare plasma and brain concentrations. At 4 hrs we determined a mean plasma concentration of 47.5 nM (+5.9 nM SD) and a mean brain concentration of 13.9 nM (+3 nM SD). […]
Plasma pharmacokinetics and brain uptake of antrafenine
The systemic exposure of antrafenine was studied in non-fasted male C57BL/6 mice weighing 19.8 – 24.6 g. Mice had access to food and water ad libitum throughout the pre- and post-dose period. Antrafenine hydrochloride Mw 588.554 (Lot#10-KSS-51-2) was obtained from Toronto Research Chemicals/LGC Standards, Canada, and was dissolved in vehicle; 5% (v/v) DMSO, 25% (v/v) 40% (w/v) Trappsol in 0.9% (w/v) saline, 70% (v/v) 40 mM citrate buffered saline at pH 3.5 at concentrations of 0.5 mg/mL and 1.5 mg/mL.
On the day of dosing, each formulation was prepared by dissolving solid antrafenine in DMSO using vortexing and sonication prior to addition of 40% (w/v) Trappsol in 0.9% (w/v) saline followed by 40 mM citrate-buffered saline at pH 3.5. Each sample was vortexed to create a colorless / light yellow solution and was filtered through a 0.22 µm syringe filter prior to dosing.
Administration of antrafenine was performed by a single bolus IV injection into the tail vein of C57BL/6 male mice using a 1ml syringe with a 25G x 1” needle at a volume of 2 mL/kg. Each […]
formulation was dosed to mice by bolus injection into the lateral tail vein (2 mL/kg) and blood samples were collected at 1, 2, 5, 15 and 30 min; 1, 2, 4, 7.5 and 24 h post-dose (n=3 mice per time point for each formulation). A maximum of three blood samples were obtained from each mouse, with plasma samples being taken via submandibular bleed (approximately 120 μL).
Blood was collected into polypropylene Eppendorf tubes containing heparin as anticoagulant and stabilization cocktail (Complete® (containing a protease inhibitor cocktail and EDTA) and potassium fluoride) to minimize the potential for ex vivo compound degradation in blood/plasma samples. Once collected, blood samples were centrifuged immediately, supernatant plasma was removed, snap frozen in dry ice and stored at -80°C until analysis by LC-MS. In addition, at the 15 min, 1, 4 and 24 h post-dose time points, the whole brain was rapidly removed from the carcass soon after the blood collection. The whole brains were blotted to remove excess blood, placed into pre-weighed polypropylene vials and weighed. The brains were snap frozen in dry […]

[3] = IV 1 mg/kg, 0.25 h, individual mice, 1 mg/kg
[4] = IV 1 mg/kg, 1 h, individual mice, 1 mg/kg
[5] = IV 1 mg/kg, 4 h, individual mice, 1 mg/kg
[6] = IV 3 mg/kg, 0.25 h, individual mice, 3 mg/kg
[7] = IV 3 mg/kg, 1 h, individual mice, 3 mg/kg
[8] = IV 3 mg/kg, 4 h, individual mice, 3 mg/kg

## O=C(OCCN1CCN(c2cccc(C(F)(F)F)c2)CC1)c1ccccc1Nc1ccnc2cc(C(F)(F)F)ccc12 [antrafenine]
[1]; 900 mg/day (approximately 12 mg/kg for a 75 kg adult), ref Berry et al, 1983
  mean plasma concentration: 202 nM
[1]; 900 mg/day
  tolerability in humans: well tolerated
[1]; patients with osteoarthritis
  mean circulating plasma levels: 0.3 µM
[2]; 24 h post-dose, either dose level (1 and 3 mg/kg IV)
  detection in brain at 24 h: not detected
[2]; [3]
  B:P ratio Individual: 0.027 and 0.094 and 0.028
  Plasma Concentration Individual: 233 nM and 344 nM
[2]; IV 1 mg/kg, 0.25 h, individual mice, 1 mg/kg, read-out: Brain Parenchyma Concentration Individual
  concentration at 4 h: 8.5 nM and 22 nM and 9.5 nM
[2]; [4]
  B:P ratio Individual: 0.087 and 0.046 and 0.096
  Plasma Concentration Individual: 112 nM and 104 nM
[2]; IV 1 mg/kg, 1 h, individual mice, 1 mg/kg, read-out: Brain Parenchyma Concentration Individual
  concentration at 4 h: 10.5 nM and 5.2 nM and 9.9 nM
[2]; [5]
  B:P ratio Individual: 0.46 and 0.26 and 0.17
  Plasma Concentration Individual: 14 nM and 12.9 nM
[2]; IV 1 mg/kg, 4 h, individual mice, 1 mg/kg, read-out: Brain Parenchyma Concentration Individual
  concentration at 4 h: 5.7 nM and 3.7 nM and 2.2 nM
[2]; IV 1 mg/kg, 24 h, individual mice, 1 mg/kg
  Plasma Concentration Individual: 1.6 nM and 1.8 nM
[2]; [6]
  B:P ratio Individual: 0.038 and 0.048
  Plasma Concentration Individual: 705 nM and 648 nM
[2]; IV 3 mg/kg, 0.25 h, individual mice, 3 mg/kg, read-out: Brain Parenchyma Concentration Individual
  concentration at 4 h: 26.6 nM and 30.9 nM
[2]; [7]
  B:P ratio Individual: 0.087 and 0.10
  Plasma Concentration Individual: 208 nM and 349 nM
[2]; IV 3 mg/kg, 1 h, individual mice, 3 mg/kg, read-out: Brain Parenchyma Concentration Individual
  concentration at 4 h: 40.2 nM and 18.2 nM and 35.8 nM
[2]; [8]
  B:P ratio Individual: 0.30 and 0.25
  Plasma Concentration Individual: 41.9 nM and 47.1 nM
[2]; IV 3 mg/kg, 4 h, individual mice, 3 mg/kg, read-out: Brain Parenchyma Concentration Individual
  concentration at 4 h: 12.7 nM and 11.7 nM
[2]; IV 3 mg/kg, 24 h, individual mice, 3 mg/kg
  Plasma Concentration Individual: 8.8 nM and 5.1 nM
[2]; IV at 1 and 3 mg/kg
  adverse reactions / toxic effects in mice: No adverse reactions or compound-related side effects were observed; also recorded: No toxic effects
  apparent plasma clearance (in words): low
  volume of distribution (in words): high
[2]; male, C57BL/6, mouse, brain parenchyma, iv, 3 mg/kg, IV 3 mg/kg, 4 h, individual mice, read-out: Brain Parenchyma Concentration Individual
  concentration at 4 h: 17.3 nM
[2]; male, C57BL/6, mouse, brain parenchyma, iv, 3 mg/kg, IV 3 mg/kg, 4 h, n = 3, read-out: Brain Parenchyma Concentration Mean ± SD
  concentration at 4 h: 13.9 nM
[2]; male, C57BL/6, mouse, brain, iv, 1 mg/kg, IV 1 mg/kg, 0.25 h, n = 3, read-out: B:P ratio Mean ± SD
  Kp at 0.25 h: 0.05
[2]; male, C57BL/6, mouse, brain, iv, 1 mg/kg, IV 1 mg/kg, 0.25 h, n = 3, read-out: Brain Parenchyma Concentration Mean ± SD
  concentration at 0.25 h: 13.3 nM
[2]; male, C57BL/6, mouse, brain, iv, 1 mg/kg, IV 1 mg/kg, 1 h, n = 3, read-out: B:P ratio Mean ± SD
  Kp at 1 h: 0.076
[2]; male, C57BL/6, mouse, brain, iv, 1 mg/kg, IV 1 mg/kg, 1 h, n = 3, read-out: Brain Parenchyma Concentration Mean ± SD
  concentration at 1 h: 8.5 nM
[2]; male, C57BL/6, mouse, brain, iv, 1 mg/kg, IV 1 mg/kg, 4 h, n = 3, read-out: B:P ratio Mean ± SD
  Kp at 4 h: 0.3 ± 0.15
[2]; male, C57BL/6, mouse, brain, iv, 1 mg/kg, IV 1 mg/kg, 4 h, n = 3, read-out: Brain Parenchyma Concentration Mean ± SD
  concentration at 4 h: 3.9 nM
[2]; male, C57BL/6, mouse, brain, iv, 3 mg/kg, IV 3 mg/kg, 0.25 h, individual mice, read-out: B:P ratio Individual
  Kp at 0.25 h: 0.042
